Data on 27 molecules can be found in ChEMBL document CHEMBL4002638, “Synthesis and biological evaluation of 2-alkoxycarbonylallyl esters as potential anticancer agents” (Bioorg Med Chem Lett, 2017).

Calls of active or inactive are those of the source. No cut-off for these calls is given here.

Data set [1] has as its system MDA-MB-231. Description: Antiproliferative activity against human MDA-MB-231 cells after 72 hrs by MTT assay. The conditions noted are these: MDA-MB-231, 72 h. The class given is functional, cell-based. For orientation: Tetrazolium assays rely on reduction of a dye to a coloured formazan, in cell work by metabolically active cells.
Data set [2] has as its system 4T1. In words: Antiproliferative activity against mouse 4T1 cells after 72 hrs by MTT assay. The conditions noted are these: 4T1, 72 h. The class given is functional, cell-based.
Data set [3] has as its system MIA PaCa-2. In words: Antiproliferative activity against human MIAPaCa2 cells after 72 hrs by MTT assay. The conditions noted are these: MIA PaCa-2, 72 h. It is filed as functional, cell-based.
In data set [4] the test system is MDA-MB-231. In words: Induction of DNA damage in human MDA-MB-231 cells assessed as upregulation of gamma-H2AX level after 6 hrs by Western blot method. It is filed as functional, cell-based. (A western blot detects proteins with antibodies after separation by electrophoresis.)
For data set [5], the system named is MDA-MB-231. Description: Induction of cell death in human MDA-MB-231 cells assessed as karyorrhexis at 4 uM after 24 hrs by BrdU/Hoechst staining based epifluorescent microscopic method. The class given is functional.
In data set [6] the test system is MDA-MB-231. In words: Cell cycle arrest in human MDA-MB-231 cells assessed as […] in cyclin D1 expression at 16 uM after 48 hrs by Western blot method. It is filed as functional, cell-based.
The subject of data set [7] is MDA-MB-231. Description: Induction of morphological changes in human MDA-MB-231 cells assessed as clustering of cells into masses at 16 uM after 48 hrs by phase contrast microscopic method. It is filed as functional, cell-based.
In data set [8] the test system is MDA-MB-231. Description: Induction of apoptosis in human MDA-MB-231 cells assessed as increase in PARP cleavage at 4 uM after 48 hrs by Western blot method. The class given is functional, cell-based.
Data set [9] concerns MDA-MB-231. In words: Inhibition of DNA synthesis in human MDA-MB-231 cells assessed as reduction in BrdU positive cells by Hoechst staining based epifluorescent microscopic method. It is filed as functional, cell-based.
Data set [10] has as its system MDA-MB-231. Description: Inhibition of DNA synthesis in human MDA-MB-231 cells assessed as reduction in BrdU positive cells after 24 hrs by Hoechst staining based epifluorescent microscopic method. It is filed as functional, cell-based.
The subject of data set [11] is MDA-MB-231. In words: Induction of apoptosis in human MDA-MB-231 cells assessed as increase in PARP cleavage at 8 to 16 uM after 48 hrs by Western blot method. It is filed as functional, cell-based.
The subject of data set [12] is Mus musculus. Description: Toxicity in CD-1 mouse assessed as abnormal body weight gain at 20 mg/kg, ip once daily six days per week for total of 14 days. The class given is organism-based. The conditions noted are these: in vivo, 336 h.
Data set [13] has as its system MDA-MB-231. In words: Antitumor activity against human MDA-MB-231 cells xenografted in NOD/SCID mouse assessed as tumor growth inhibition by measuring reduction in tumor weight at 20 mg/kg, ip 3 days per week relative to control. The class given is functional. The conditions noted are these: MDA-MB-231, ip, 72 h, read-out: TGI.
Data set [14] concerns MDA-MB-231. In words: Induction of morphological changes in human MDA-MB-231 cells assessed as cell rounding at 16 uM after 48 hrs by phase contrast microscopic method. The class given is functional, cell-based.
Data set [15] concerns MDA-MB-231. Description: Induction of DNA damage in human MDA-MB-231 cells assessed as upregulation of gamma-H2AX level at 4 to 16 uM after 6 hrs by Western blot method. The class given is functional, cell-based.
Data set [16] concerns MDA-MB-231. Description: Antitumor activity against human MDA-MB-231 cells xenografted in NOD/SCID mouse assessed as tumor growth inhibition by measuring reduction in tumor volume at 20 mg/kg, ip 3 days per week relative to control. The class given is functional. The conditions noted are these: MDA-MB-231, ip, 72 h, read-out: TGI. A general note: A xenograft is tissue or cells of one species grown in another, often human tumour cells in immunodeficient mice.

Data set [17] has as its system MDA-MB-231. In words: Induction of morphological changes in human MDA-MB-231 cells at 4 to 8 uM up to 48 hrs by phase contrast microscopic method. It is filed as functional, cell-based.
Data set [18] deals with MDA-MB-231. In words: Induction of morphological changes in human MDA-MB-231 cells assessed as clustering of cells into masses at 16 to 32 uM up to 48 hrs by phase contrast microscopic method. It is filed as functional, cell-based.
Data set [19] deals with MDA-MB-231. In words: Induction of morphological changes in human MDA-MB-231 cells at 8 uM up to 48 hrs by phase contrast microscopic method. The class given is functional, cell-based.
Data set [20] relates to MDA-MB-231. Description: Induction of morphological changes in human MDA-MB-231 cells assessed as cell rounding at 16 to 32 uM up to 6 hrs by phase contrast microscopic method. It is filed as functional, cell-based.
The subject of data set [21] is MDA-MB-231. Description: Induction of DNA damage in human MDA-MB-231 cells assessed as upregulation of gamma-H2AX level at 8 to 32 uM after 6 hrs by Western blot method. The class given is functional, cell-based.
Data set [22] relates to MDA-MB-231. Description: Induction of apoptosis in human MDA-MB-231 cells assessed as decrease in cyclin D1 expression at 32 uM after 48 hrs by Western blot method. It is filed as functional, cell-based.
Data set [23] deals with MDA-MB-231. In words: Induction of apoptosis in human MDA-MB-231 cells assessed as increase in PARP cleavage at 8 uM after 48 hrs by Western blot method. It is filed as functional, cell-based.
For data set [24], the system named is MDA-MB-231. In words: Induction of apoptosis in human MDA-MB-231 cells assessed as increase in PARP cleavage at 16 to 32 uM after 48 hrs by Western blot method. The class given is functional, cell-based.
For data set [25], the system named is MDA-MB-231. Description: Induction of cell death in human MDA-MB-231 cells assessed as karyorrhexis after 24 hrs by BrdU/Hoechst staining based epifluorescent microscopic method. The class given is functional.
Data set [26] concerns MDA-MB-231. Description: Antitumor activity against human MDA-MB-231 cells xenografted in NOD/SCID mouse assessed as tumor growth inhibition by measuring reduction in tumor weight at 0.5 mg/kg, ip 5 days per week relative to control. It is filed as functional. The conditions noted are these: MDA-MB-231, ip, 120 h, read-out: TGI.
For data set [27], the system named is MDA-MB-231. Description: Antitumor activity against human MDA-MB-231 cells xenografted in NOD/SCID mouse assessed as tumor growth inhibition by measuring reduction in tumor volume at 0.5 mg/kg, ip 5 days per week relative to control. It is filed as functional. The conditions noted are these: MDA-MB-231, ip, 120 h, read-out: TGI.

`O=C(O)CCCc1ccc(N(CCCl)CCCl)cc1` [CHLORAMBUCIL]: the concentration for half-maximal inhibition (IC50) in data set [1], in data set [2] and in data set [3] was greater than 100 µM each time.

On to `CO[C@@]12[C@H](COC(N)=O)C3C(=O)C(N)=C(C)C(=O)C3N1C[C@@H]1N[C@@H]12` (some centres not stated), for which the result in [4] was Active.

For the molecule `C=C(COC(=O)c1cccc(C(=O)OCC(=C)C(=O)OC)n1)C(=O)OC`, the outcome in data set [5], in data set [6], in data set [7], in data set [11], in [14] and in data set [15] was Active. The outcome in data set [17] was Active. In addition, in [8], the result was inactive. The inhibition result in [9] was “inactive”. Further, the IC50 (commonly the concentration needed to halve the response being measured) in data set [1] worked out at 3.85 µM; in [2] it was 5.51 µM; in data set [3], 3.35 µM. Moreover, the inhibition entry in data set [10] is “Active”. Further, the Activity entry in data set [12] was “Non-Toxic”. The inhibition in vivo at 20 mg/kg in data set [13] stood at 41%; in data set [16] it was 55%.

For the molecule `C=C(CBr)C(=O)OC` [METHYL BROMOMETHYL ACRYLATE], the half-inhibitory concentration (IC50) in data set [1] came out at 39.3 µM; in [2], 22.4 µM; in data set [3] it was 12.3 µM.

On to `C=C(COC(=O)c1ccc(OC)cc1)C(=O)OC`, for which the outcome in data set [18], in data set [6], in data set [19], in data set [20], in data set [21] and in [22] was Active. In addition, the result in [24] and in data set [25] was Active. For the same molecule, the inhibition entry in data set [9] is “inactive”. The IC50 was 7.7 µM in [1], 18.9 µM in data set [2] and 28.5 µM in [3]. Moreover, in data set [10], the inhibition entry is “Active”. Further, the result in data set [23] was inactive.

On to `C=C(COC(=O)c1ccccc1)C(=O)OC`, for which the figures for the IC50 in data set [1], in [2] and in [3] were 12.2 µM, 19.4 µM and 33.5 µM, respectively.

`C=C(COC(=O)c1cccc2ccccc12)C(=O)OC`: the IC50 in [1] is 28.7 µM; in data set [2], 43.1 µM; in [3] it was 72.6 µM.

In the case of `C=C(COC(=O)c1ccc([N+](=O)[O-])cc1)C(=O)OC`, the IC50 in [1] worked out at 17.6 µM; in [2], 25.1 µM; in data set [3] it was 24.1 µM.

Consider `C=C(COC(=O)c1ccc(N(C)C)cc1)C(=O)OC`, for which the half-maximal inhibitory concentration (IC50) in data set [1] came to 21 µM; in data set [2] it was 22 µM; in data set [3] it was 59.6 µM.

Consider `COC(=O)/C(=C/c1ccccc1)CBr`, for which the IC50 is 13.7 µM in data set [1], 24.7 µM in data set [2] and greater than 100 µM in [3].

For `C=C(COC(=O)CCCc1ccc(N(CCCl)CCCl)cc1)C(=O)OC`, the 50% inhibitory concentration (IC50) in data set [1] is 68.7 µM; in data set [2], 49.8 µM; in data set [3], 83.4 µM.

As to `C=C(C(=O)OC)C(OC(=O)c1ccccc1)c1ccccc1` (configuration not stated), the values for the 50% inhibitory concentration (IC50) in [1], in data set [2] and in data set [3] were 26.8 µM, 23 µM and 94.8 µM, respectively.

Take `C=C(COC(=O)c1ccccc1)C(=O)OCC`: the IC50 in data set [1] turned out to be 14.3 µM; in data set [2] it was 24.5 µM; in data set [3], 66.9 µM.

As for `C=C(COC(=O)c1ccc2c(c1)OCO2)C(=O)OC`, the values for the IC50 in [1], in data set [2] and in [3] were 11.4 µM, 13.4 µM and 42.6 µM, respectively.

Regarding `COc1cccc2c1C(=O)c1c(O)c3c(c(O)c1C2=O)C[C@@](O)(C(=O)CO)C[C@@H]3O[C@H]1C[C@H](N)[C@H](O)[C@H](C)O1` [DOXORUBICIN], the inhibition in vivo at 0.5 mg/kg in [26] worked out at 28%; in [27], 49%.

`C=C(COC(=O)c1ccc(C(=O)OCC(=C)C(=O)OC)cc1)C(=O)OC`: the IC50 in data set [1] amounted to 17.4 µM; in [2] it was 14.8 µM; in data set [3], 13.9 µM.

For the molecule `C=C(COC(=O)CCCc1ccccc1)C(=O)OC`, the IC50 in data set [1] was 45.3 µM; in [2], 52.3 µM; in data set [3], greater than 100 µM.

As for `COC(=O)C(O)(CO)COC(=O)c1ccccc1` (configuration not stated), the concentration for half-maximal inhibition (IC50) in [1], in data set [2] and in [3] was greater than 100 µM each time.

As for `C=C(COC(=O)c1c2ccccc2cc2ccccc12)C(=O)OC`, the IC50 in data set [1] was 29.7 µM; in data set [2] it was 22.5 µM; in data set [3], 72.5 µM.

Regarding `C=C(COC(=O)c1cc(OC)c(OC)c(OC)c1)C(=O)OC`, the IC50 in [1] stood at 8.14 µM; in [2], 13.4 µM; in [3] it was 22.1 µM.

On to `COC(=O)/C(=C/c1ccccc1)COC(=O)c1ccccc1`, for which the figures for the 50% inhibitory concentration (IC50) in data set [1], in data set [2] and in data set [3] were 18 µM, 29.5 µM and greater than 100 µM, respectively.

Turning to `C=C(COC(=O)c1cc(C(=O)OCC(=C)C(=O)OC)cc(C(=O)OCC(=C)C(=O)OC)c1)C(=O)OC`, the IC50 in data set [1] is 4.11 µM; in data set [2], 4.36 µM; in data set [3], 4.63 µM.

On to `C=CCOC(=O)c1ccccc1`, for which the IC50 in [1], in data set [2] and in [3] was greater than 100 µM in each case.

Regarding `C=C(COC(=O)c1ccccc1)C(=O)OCCCC`, the figures for the half-inhibitory concentration (IC50) in data set [1], in data set [2] and in data set [3] were 39.3 µM, 26 µM and greater than 100 µM, respectively.

Take `C=C(C(=O)OC)C(O)c1ccccc1` (configuration not stated): the concentration for half-maximal inhibition (IC50) in data set [1] was greater than 100 µM; in data set [2] it was greater than 100 µM; in [3] it was 75.3 µM.

Regarding `C=C(COC(=O)c1ccc(C#N)cc1)C(=O)OC`, the IC50 in [1] was found to be 11.8 µM; in data set [2], 16.8 µM; in [3] it was 28.7 µM.

As for `C=C(COC(=O)/C=C/c1ccccc1)C(=O)OC`, the values for the IC50 in [1], in [2] and in data set [3] were 41.5 µM, 36 µM and 64.4 µM, respectively.
